From patent US7943600B2, “Antimicrobial combination therapy” (priority 2004, dated 2011)

How the values were obtained:
Format in all cases: cell-based, E. coli
MG1655/F′Tn10 = assay: Survival curves (colony formation) after cisplatin treatment
Protocol: Strain GM4292 was constructed by mating exponentially growing XL1-Blue (Stratagene) with MG1655 (both at 1-2×10^8/ml at a 1:1 ratio) for 60 min and plating dilutions of the mixture on MacConkey agar-tetracycline plates. A red tetracycline-resistant, nalidixic acid-sensitive colony was selected, purified and designated GM4292. Strain GM4293 was constructed by introducing F′42 (F′lac^+) from AB 1874 into KM81 by conjugation as described above and selecting for Lac^+ Str^R colonies. A purified Lac^+ Str^R recombinant overnight culture was diluted and plated on MacConkey agar-kanamycin and following incubation overnight at 37° C., white colonies were selected. White colonies can arise either by gene conversion, where the lac^+ allele on the F′42 plasmid is converted to lacZ::Kan, or by loss of the F′lac^+. The white colonies were tested for their ability to transfer kanamycin-resistance at high frequency to MG1655, indicating retention of the F′ plasmid. One of these MG1655 recipients was designated GM4293.
(§1) MacConkey agar and LB broth were purchased from Difco. LB broth contained 10 g tryptone, 5 g yeast extract, and 10 g NaCl per 1 L. All antibiotics and cisplatin (cis-diammine-dichloro-platinum(II), or CDDP) were purchased from Sigma-Aldrich. Antibiotics were used at the following final concentrations: 15 μg/ml tetracycline (Tc), 100 μg/ml ampicillin, 50 μg/ml kanamycin, 100 μg/ml streptomycin, 30 μg/ml nalidixic acid and 20 μg/ml chloramphenicol. Cisplatin solutions were prepared by dissolution in phosphate buffered saline (PBS) at 37° C. for one hour with rotation, filtering the solution through a 0.2 μm Acrodisc filter, and determining the concentration by UV absorbance at A301 using a Beckmann DU-65 spectrophotometer. Appropriate doses of cisplatin were then prepared by dilution in PBS.
Cells were grown overnight from single colonies in LB broth. The next morning, saturated overnight cultures were diluted 1:100 and grown for two hours to mid-log phase (cell density approximately 3×10^8 cells/ml). […] Exposure to cisplatin was stopped by dilution of the cells 1:100 in M9 salts. Appropriate serial dilutions were prepared for each dose and plated on LB plates or LB/Tet plates. Colonies were counted the next day after incubation at 37° C. Survival was calculated as a percentage of cells forming colonies in treated populations relative to untreated.

CC104 mutY::tet = assay: Survival curves after cisplatin treatment
Protocol: as §1
(§2) Cells were grown overnight from single colonies in LB broth. The next morning, saturated overnight cultures were diluted 1:100 and grown for two hours to mid-log phase (cell density approximately 3×10^8 cells/ml). At this time, the cells were spun down, resuspended in M9 minimal salts, and treated with various concentrations of cisplatin at 37° C. for 1 hour. Exposure to cisplatin was stopped by dilution of the cells 1:100 in M9 salts. Appropriate serial dilutions were prepared for each dose and plated on LB plates or LB/Tet plates. Colonies were counted the next day after incubation at 37° C. Survival was calculated as a percentage of cells forming colonies in treated populations relative to untreated.

AB1157 mutS::tet = assay: Survival curves after cisplatin treatment
Protocol: as §1, §2

GM7330 fpg::tet = assay: Survival curves after cisplatin treatment
Protocol: as §1, §2

CC104/pBR322 = assay: Survival curves after cisplatin treatment; details: grown with tetracycline prior to cisplatin treatment
Protocol: (§3) Strains carrying the pBR322 plasmid were created using a standard transformation by electroporation protocol. Briefly, cells were grown to mid-log phase, spun down, and washed 3 times in ice-cold sterile water. Cells were then resuspended in the final volume of 100 μl of ice-cold sterile water, and 10 μg pBR322 (New England BioLabs) was added. The BTX electroporation system, ElectroCell Manipulator 600, was used to deliver the pulse. After the pulse, cells were immediately resuspended in 1 ml of LB broth. Appropriate dilutions of cells were prepared in M9 minimal salts, plated on LB-ampicillin plates, and allowed to form colonies overnight.
as §1, §2

MG1655/pBR322 = assay: Survival curves after cisplatin treatment
Protocol: as §3, §1, §2

AB1157/pBR322 = assay: Survival curves after cisplatin treatment; details: grown with tetracycline prior to cisplatin treatment
Protocol: as §3, §1, §2

GM7330 fpg::amp = assay: Survival curves after cisplatin treatment; details: presence or absence of ampicillin in growth medium
Protocol: as §1, §2

CC104 mutY::cam = assay: Survival curves after cisplatin treatment; details: presence or absence of chloramphenicol in growth medium
Protocol: as §1, §2

[1] = grown without tetracycline, treated with cisplatin alone
[2] = grown without tetracycline, treated with cisplatin in the presence of tetracycline
[3] = pre-treated and co-treated with tetracycline vs pre-treated only, cisplatin
[4] = tetracycline absent from growth medium

N.N.[Cl][Pt][Cl] [cisplatin, cis-diammine-dichloro-platinum(II)]
sensitivity to cisplatin (MG1655/F′Tn10; 4 hours, 10-fold lower cisplatin doses, co-treated with tetracycline only): more sensitive to cisplatin than wild-type
survival (MG1655/F′Tn10; 4 hours, 10-fold lower cisplatin doses, neither pre-treated nor co-treated with tetracycline): not different from survival of wild-type cells
sensitivity to cisplatin (MG1655/F′Tn10; 4 hours, 10-fold lower cisplatin doses, pre-treated with tetracycline and co-treated with cisplatin and tetracycline): the most sensitive to cisplatin treatment
sensitivity to cisplatin (MG1655/F′Tn10; 4 hours, 10-fold lower cisplatin doses, pre-treated with tetracycline only): more sensitive to cisplatin than wild-type
sensitivity to cisplatin (MG1655/F′Tn10; [1]): equally sensitive to cisplatin as MG1655 cells not carrying any tet genes
survival (MG1655/F′Tn10; [2]): their survival decreased
survival upon exposure to cisplatin (MG1655/F′Tn10; grown without tetracycline, cisplatin 1 hour): not different from that of MG1655 wild-type cells
additional decrease in survival (MG1655/F′Tn10; [3]): 100 fold
survival upon subsequent treatment with cisplatin (MG1655/F′Tn10; tetracycline 15 μg/ml in growth medium of overnight and log phase cultures, cisplatin 1 hour): dramatic decrease in survival
killed more effectively than wild-type bacteria (MG1655/F′Tn10; tetracycline-resistant bacteria grown in tetracycline, then cisplatin in the presence of tetracycline, vs wild-type or resistant bacteria not exposed to tetracycline): about 10^5 fold
survival upon treatment with cisplatin (CC104 mutY::tet; grown with tetracycline): dramatically decreased
survival upon treatment with cisplatin (CC104 mutY::tet; [4]): not different from respective wild-types
survival upon treatment with cisplatin (AB1157 mutS::tet; grown with tetracycline): dramatically decreased
survival upon treatment with cisplatin (AB1157 mutS::tet; [4]): not different from respective wild-types
survival upon treatment with cisplatin (GM7330 fpg::tet; grown with tetracycline): dramatically decreased
survival upon treatment with cisplatin (GM7330 fpg::tet; [4]): not different from respective wild-types
sensitization to cisplatin (CC104/pBR322): did not produce similar sensitization to cisplatin
sensitization to cisplatin (MG1655/pBR322; grown with tetracycline prior to cisplatin treatment): did not produce similar sensitization to cisplatin
sensitivity to cisplatin (MG1655/pBR322; [1]): equally sensitive to cisplatin as MG1655 cells not carrying any tet genes
survival (MG1655/pBR322; [2]): their survival decreased
additional decrease in survival (MG1655/pBR322; [3]): 100 fold
sensitization to cisplatin (AB1157/pBR322): did not produce similar sensitization to cisplatin

CC1(C)S[C@@H]2[C@H](NC(=O)[C@H](N)c3ccccc3)C(=O)N2[C@H]1C(=O)O [ampicillin]
effect of antibiotic in growth medium on survival upon cisplatin treatment (GM7330 fpg::amp): did not produce the same degree of sensitization to cisplatin

O=C(N[C@H](CO)[C@H](O)c1ccc([N+](=O)[O-])cc1)C(Cl)Cl [chloramphenicol]
effect of antibiotic in growth medium on survival upon cisplatin treatment (CC104 mutY::cam): did not produce the same degree of sensitization to cisplatin
